US6821530B2, “Polymer composite compositions” (Shriners Hospitals for Children, priority 2000, dated 2004)

Columns and labels:
[1] = test system: primary tendon fibroblast cultures; assay: Fibroblast replication after single NDGA exposure; format: cell-based, calf
Method: (§1) Cell cultures: Digital extensor tendons were excised fresh from new born calves euthanized at a local abattoir and held in Dulbecco's Phosphate Buffered Saline during dissection and preparation for culture. Tendons were minced, weighed, and then digested with 0.1% w/v testicular hyaluronidase in 0.15 M NaCl, 0.1 M NaH2PO4, pH 7.0 (5 ml/g wet tissue weight) at 37° C. for 45 minutes. The hyaluronidase wash was decanted and the tissue was next digested with 5 mg/g tissue of Pronase E and 5 mg/g tissue of collagenase in 4% bovine serum albumen in DMEM/Ham F12 medium at 37° C. overnight. Cells were isolated from the tissue residue and washed with PBS. Cells were dispersed in DMEM/Ham F12 medium, counted, and plated on 24-well culture plates. Cells were cultured in DMEM/Ham F12 containing 10% FBS unless otherwise noted.
Effect of NDGA on fibroblast replication. To determine whether NDGA or oxidation products derived from the cross-linking reaction influenced cell replication, primary tendon fibroblast cultures were treated with a single exposure at the start of culture with concentrations of NDGA from […]. Fibroblasts were subsequently cultured for 1, 2, and 4 weeks. At each time point, the number of viable cells in each treatment group was determined. The lower NDGA concentrations, […], had no effect on cell replication (FIG. 15).

[2] = NDGA quantitation in culture medium by capillary zone electrophoresis; format: physicochemical; design: Initial NDGA remaining in medium: dose or concentration left out as unconfirmed
Method: NDGA Quantitation: The amount of NDGA in the buffers, eluents, and medium was determined by capillary zone electrophoresis on a Dionex CES. A sodium borate buffer (10 mM sodium borate, 50 mM boric acid, pH 8.0) was chosen for electrophoresis because it was known that borate efficiently complexes with catechols and increases absorptivity (Waite et al., Methods. Enzymol. 107:397-413, 1984). Samples were diluted in electrophoresis buffer, loaded by electrophoresis (5000 V for 5 seconds) onto a […] inner diameter×80 cm long hollow glass capillary, and electrophoresed at 20 kV. NDGA was detected by absorbance at 280 nm. The amount of NDGA in the experimental samples was calculated from the peak area following calibration of the NDGA standards dissolved directly in capillary zone electrophoresis (CZE) buffer. Based on capillary zone electrophoretic analysis of NDGA-containing medium, NDGA disappears from the medium with time in culture, even in the absence of cells (FIGS. 13A and 13B). NDGA was dissolved in DMSO to 10 mM and then diluted 100-fold into the medium. For the zero time point, the medium containing NDGA was diluted 3-fold with CZE buffer and electrophoresed immediately. For the 24 hour time point, the medium was incubated at 37° C. in a cell culture incubator before diluting 3-fold and electrophoresing. […] The fate of the NDGA is unclear. Its disappearance may involve oxidation of the catechols to quinones, since the medium developed a brown pigment similar to that formed from chemically oxidized NDGA. In the medium containing […] NDGA, less than 10% of the initial NDGA remained after 24 hours, decreasing the NDGA concentration to below […] (FIGS. 13A and 13B).

[3] = test system: confluent tendon fibroblasts; assay: Cytotoxicity test of NDGA and its oxidation products, CYQUANT viable cell number; format: cell-based, calf
Method: as §1
Cytotoxicity tests: The potential toxicity of NDGA, its reaction products, and the NDGA cross-linked fibers was determined using confluent tendon fibroblasts. NDGA was tested by dissolving NDGA in DMSO, then directly diluting in the medium containing 10% FBS to the desired final concentrations. […] Fibroblasts were cultured in the presence of NDGA or its oxidation products for 24 hours, and then the number of viable cells was measured with the CYQUANT® Cell Proliferation Assay Kit (Molecular Probes).

[4] = medium containing, after 24 hours

Effect on cell replication ([1]; 1 and 10 mM NDGA, culture 1, 2, 4 weeks): no effect | Effect on cell replication ([1]; one hundred millimolar NDGA, after first week rate similar to control): temporary delay in replication | NDGA vanished from medium ([2]; 10 mM in DMSO diluted 100-fold into medium, 37° C., no cells, by 24 hours): over 95% | Initial NDGA remaining in medium [2, 4]: less than 10% | NDGA concentration in medium [2, 4]: below 100 mM
Structure (SMILES): CC(Cc1ccc(O)c(O)c1)C(C)Cc1ccc(O)c(O)c1 (centres unmarked) [NDGA, Nordihydroguaiaretic acid]
Effect on cell replication ([1]; highest NDGA concentration): toxic to the cells | Reduction in viable cells ([3]; 1000 mM NDGA, after 24 hr): 80% | Effect on cell viability over that of DMSO alone ([3]; NDGA at 1, 10, and 100 mM, 24 hours of exposure): little effect
